Assay [1] has as its system A. baumannii (ATCC 17978). The assay can be described thus: MIC and MBC, microtiter plate technique. The class given is cell-based. The note with it: ATCC17978, Acinetobacter baumannii; for MIC: 24 h, resazurin; for MBC: TTC. For orientation: Resazurin is reduced to fluorescent resorufin, in cell work by metabolically active cells.
In the next assay the test system is E. cloacae (ATCC 49141). The assay can be described thus: MIC and MBC, microtiter plate technique. The class given is cell-based. Conditions: ATCC49141, Enterobacter cloacae; for MIC: 24 h, resazurin; for MBC: TTC.
Another assay relates to S. aureus (ATCC 23235). The assay can be described thus: microbe, parasite or virus in culture. The assay is classed as cell-based. Conditions: Staphylococcus aureus; for MBC: ATCC23235; for MIC: ATCC23235, 24 h.
The test system of the next assay is E. coli R3 (ATCC 11775). Briefly: MIC and MBC, microtiter plate technique. The class given is cell-based. The note with it: Escherichia coli; for MIC: ATCC11775, 24 h, resazurin; for MBC: ATCC11775, TTC.
A further assay relates to E. coli R2 (ATCC 39544). Briefly: MIC and MBC, microtiter plate technique. The class given is cell-based. Conditions: Escherichia coli; for MBC: ATCC39544; for MIC: ATCC39544, 24 h.
The test system of assay [2] is P. aeruginosa (ATCC 15442). The assay can be described thus: MIC and MBC, microtiter plate technique. The assay is classed as cell-based. The note with it: ATCC15442, Pseudomonas aeruginosa; for MIC: 24 h, resazurin; for MBC: TTC.
In a further assay the test system is E. coli R4 (ATCC 39543). Briefly: MIC and MBC, microtiter plate technique. Conditions: Escherichia coli; for MBC: ATCC39543; for MIC: ATCC39543, 24 h. The assay is classed as cell-based.
A further assay concerns E. coli K12 (ATCC 25404). The assay can be described thus: MIC and MBC, microtiter plate technique. The class given is cell-based. The note with it: Escherichia coli; for MBC: ATCC25404; for MIC: ATCC25404, 24 h.
Assay [3] addresses T1, mushroom tyrosinase (mTYR) (Agaricus bisporus, UniProt C7FF04).
T1 construct: purchased Sigma-Aldrich (Poznan, Poland); host or cells: Agaricus bisporus (extracted natural enzyme)
The assay can be described thus: Tyrosinase assay with L-DOPA as substrate (absorbance at 475 nm). The assay is classed as biochemical. The note with it: 100 µM compound. An excerpt: Tyrosinase (Tyr) extracted from Agaricus bisporus (mushroom tyrosinase, mTYR) is commonly used as a model enzyme for human Tyr due to its high purity, stability, and commercial availability. It is frequently used in the selection of TYR inhibitors. Following established literature protocols, L-tyrosine and L-DOPA, which serve as substrates for monophenol and diphenol oxidation, respectively, were used to assess the tyrosinase inhibitory activity of synthesized target compounds [21].
Tyrosinase (Tyr) activity was measured using L-DOPA as substrate and phosphate buffer solution (PBS) as blank control, following the method described by Min He et al. (2022) with an ultraviolet spectrophotometer (Carry-300, Agilent Life Sciences and Chemical Analysis, Santa Clara, CA, USA). […] Before the experiment, 2.9 mL of PBS and 0.1 mL of DMSO were used to account for the influence of the background solvent. The inhibitor solution (100 µL), substrate solution (2.8 mL), and Tyr solution (100 µL) were then added to a quartz colorimetric cuvette. After a one-minute mixing period, the absorption spectra of the mixture were continuously recorded at 475 nm using the UV spectrophotometer (Carry-300) for 5 min over a period of every 30 s. The tyrosinase inhibition rate was calculated as follows:Relative enzyme activity (%) = (A1 − A2)/A1 × 100
A1 = Absorbance of L-DOPA and inhibitor.
A2 = Absorbance of L-DOPA, inhibitor, and tyrosinase.

Here are results for 5 compounds from article PMC11855086, “Synthesis, Antimicrobial Activity, and Tyrosinase Inhibition by Multifunctional 3,4-Dihydroxy-Phenyl Peptidomimetics” (International Journal of Molecular Sciences, 2025).

The term inhibition denotes the share of the control response that was lost under treatment. Low readings indicate little suppression, high ones strong suppression.

SMILES strings stand for the structures. In brackets after ≈: the same amount, converted by molar mass.

T1 sequence (C7FF04 1-392 limits assumed): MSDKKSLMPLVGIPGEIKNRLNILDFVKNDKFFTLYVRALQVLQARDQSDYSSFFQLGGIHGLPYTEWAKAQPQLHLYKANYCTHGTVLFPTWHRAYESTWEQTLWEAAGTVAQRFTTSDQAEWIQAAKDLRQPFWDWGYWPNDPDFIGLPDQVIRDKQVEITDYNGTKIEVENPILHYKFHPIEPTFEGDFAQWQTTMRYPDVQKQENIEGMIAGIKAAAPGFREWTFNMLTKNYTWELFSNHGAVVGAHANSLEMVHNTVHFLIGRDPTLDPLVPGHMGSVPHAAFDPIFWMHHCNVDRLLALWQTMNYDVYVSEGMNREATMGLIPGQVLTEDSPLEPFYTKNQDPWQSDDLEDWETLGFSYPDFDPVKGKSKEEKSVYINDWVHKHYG

Regarding `CCCCN(C(=O)Cc1ccccc1)C(C(=O)NCc1ccc(F)cc1)c1ccc(O)c(O)c1` (centres unmarked) [Compound 5i], the MIC in assay [1] came out at 0.99 µM (≈ 0.46 µg/mL); in the assay with E. cloacae (ATCC 49141), 1.21 µM (≈ 0.562 µg/mL); with S. aureus (ATCC 23235), 0.99 µM (≈ 0.46 µg/mL); against E. coli R3 (ATCC 11775) it was 1.92 µM (≈ 0.892 µg/mL); in the assay with E. coli R2 (ATCC 39544), 1.17 µM (≈ 0.544 µg/mL); in assay [2], 1.23 µM (≈ 0.571 µg/mL). Also, the figures for the MIC against E. coli R4 (ATCC 39543) and against E. coli K12 (ATCC 25404) were 2.31 µM (≈ 1.07 µg/mL) and 0.6 µM (≈ 0.279 µg/mL), respectively. The MBC in assay [1] came out at 1.05 µM (≈ 0.488 µg/mL); in the assay on E. cloacae (ATCC 49141), 1.27 µM (≈ 0.59 µg/mL); against S. aureus (ATCC 23235), 1.05 µM (≈ 0.488 µg/mL); with E. coli R3 (ATCC 11775), 2.13 µM (≈ 0.989 µg/mL); in the assay with E. coli R2 (ATCC 39544), 1.16 µM (≈ 0.539 µg/mL); in assay [2] it was 1.26 µM (≈ 0.585 µg/mL). Further, the MBC was 2.51 µM (≈ 1.17 µg/mL) against E. coli R4 (ATCC 39543) and 1.05 µM (≈ 0.488 µg/mL) against E. coli K12 (ATCC 25404). In assay [3], the inhibition at 100 µM is > 10%.
Turning to `CC(=O)N(C1CCCCC1)C(C(=O)NCc1ccc(F)cc1)c1ccc(O)c(O)c1` (centres unmarked) [Compound 5o, 2-(N-cyclohexylacetamido)-2-(3,4-dihydroxyphenyl)-N-(4-fluorobenzyl)acetamide], the MIC in assay [1] is 0.75 µM (≈ 0.311 µg/mL); in the assay with E. cloacae (ATCC 49141), 0.8 µM (≈ 0.332 µg/mL); in the assay on S. aureus (ATCC 23235), 0.74 µM (≈ 0.307 µg/mL); in the assay on E. coli R3 (ATCC 11775), 1.01 µM (≈ 0.419 µg/mL); with E. coli R2 (ATCC 39544), 0.79 µM (≈ 0.327 µg/mL); in assay [2], 0.73 µM (≈ 0.303 µg/mL). Also, the results for the MIC in the assay with E. coli R4 (ATCC 39543) and against E. coli K12 (ATCC 25404) were 1.52 µM (≈ 0.63 µg/mL) and 0.3 µM (≈ 0.124 µg/mL), respectively. The MBC worked out at 0.81 µM (≈ 0.336 µg/mL) in [1]; 0.84 µM (≈ 0.348 µg/mL) in the assay with E. cloacae (ATCC 49141); 0.81 µM (≈ 0.336 µg/mL) in the assay on S. aureus (ATCC 23235); 1.45 µM (≈ 0.601 µg/mL) in the assay with E. coli R3 (ATCC 11775); 1.23 µM (≈ 0.51 µg/mL) in the assay with E. coli R2 (ATCC 39544); 0.86 µM (≈ 0.356 µg/mL) in assay [2]. The MBC against E. coli R4 (ATCC 39543) was 1.47 µM (≈ 0.609 µg/mL); in the assay with E. coli K12 (ATCC 25404) it was 0.86 µM (≈ 0.356 µg/mL). Also, the inhibition at 100 µM in assay [3] is > 10%.
With `COc1ccc(CNC(=O)C(c2ccc(O)c(O)c2)N(C(C)=O)C2CCCCC2)cc1` (centres unmarked) [Compound 5n, 2-(N-cyclohexylacetamido)-2-(3,4-dihydroxyphenyl)-N-(4-methoxybenzyl)acetamide], the MIC in [1] worked out at 0.75 µM (≈ 0.32 µg/mL); in the assay with E. cloacae (ATCC 49141) it was 0.8 µM (≈ 0.341 µg/mL); against S. aureus (ATCC 23235), 0.72 µM (≈ 0.307 µg/mL); with E. coli R3 (ATCC 11775), 1.1 µM (≈ 0.469 µg/mL); against E. coli R2 (ATCC 39544), 0.76 µM (≈ 0.324 µg/mL); in assay [2], 0.78 µM (≈ 0.333 µg/mL). The values for the MIC with E. coli R4 (ATCC 39543) and against E. coli K12 (ATCC 25404) were 1.48 µM (≈ 0.631 µg/mL) and 0.39 µM (≈ 0.166 µg/mL), respectively. In addition, the MBC was determined as 0.79 µM (≈ 0.337 µg/mL) in assay [1]; 0.8 µM (≈ 0.341 µg/mL) with E. cloacae (ATCC 49141); 0.83 µM (≈ 0.354 µg/mL) with S. aureus (ATCC 23235); 1.3 µM (≈ 0.554 µg/mL) against E. coli R3 (ATCC 11775); 1.3 µM (≈ 0.554 µg/mL) with E. coli R2 (ATCC 39544); 0.82 µM (≈ 0.35 µg/mL) in assay [2]. Moreover, the MBC in the assay on E. coli R4 (ATCC 39543) was 1.44 µM (≈ 0.614 µg/mL); in the assay on E. coli K12 (ATCC 25404), 0.77 µM (≈ 0.328 µg/mL).
Turning to `O=C(NCc1ccccc1)C(c1ccc(O)c(O)c1)N(C(=O)Cc1ccccc1)C1CCCCC1` (centres unmarked) [Compound 5d, N-benzyl-2-(N-cyclohexyl-2-phenylacetamido)-2-(3,4-dihydroxyphenyl)acetamide], the MIC in [1] was 0.74 µM (≈ 0.35 µg/mL); against E. cloacae (ATCC 49141), 0.68 µM (≈ 0.321 µg/mL); against S. aureus (ATCC 23235), 0.68 µM (≈ 0.321 µg/mL); against E. coli R3 (ATCC 11775), 0.92 µM (≈ 0.435 µg/mL); against E. coli R2 (ATCC 39544), 0.68 µM (≈ 0.321 µg/mL); in [2], 0.63 µM (≈ 0.298 µg/mL). Further, the MIC is 1.45 µM (≈ 0.685 µg/mL) with E. coli R4 (ATCC 39543) and 0.36 µM (≈ 0.17 µg/mL) against E. coli K12 (ATCC 25404). The MBC in [1] worked out at 0.75 µM (≈ 0.354 µg/mL); in the assay on E. cloacae (ATCC 49141) it was 0.76 µM (≈ 0.359 µg/mL); against S. aureus (ATCC 23235), 0.74 µM (≈ 0.35 µg/mL); in the assay with E. coli R3 (ATCC 11775), 1.06 µM (≈ 0.501 µg/mL); against E. coli R2 (ATCC 39544) it was 1.07 µM (≈ 0.506 µg/mL); in assay [2] it was 0.74 µM (≈ 0.35 µg/mL). Besides, the figures for the MBC against E. coli R4 (ATCC 39543) and against E. coli K12 (ATCC 25404) were 1.29 µM (≈ 0.61 µg/mL) and 0.74 µM (≈ 0.35 µg/mL), respectively. For the same compound, in assay [3], the inhibition at 100 µM is > 10%.
On to `CC(=O)N(C1CCCCC1)C(C(=O)NCc1ccccc1)c1ccc(O)c(O)c1` (centres unmarked) [Compound 5m, N-benzyl-2-(N-cyclohexylacetamido)-2-(3,4-dihydroxyphenyl)acetamide], for which the MIC amounted to 0.79 µM (≈ 0.313 µg/mL) in assay [1]; 0.81 µM (≈ 0.321 µg/mL) against E. cloacae (ATCC 49141); 0.75 µM (≈ 0.297 µg/mL) in the assay with S. aureus (ATCC 23235); 1.24 µM (≈ 0.492 µg/mL) in the assay with E. coli R3 (ATCC 11775); 0.94 µM (≈ 0.373 µg/mL) with E. coli R2 (ATCC 39544); 0.8 µM (≈ 0.317 µg/mL) in assay [2]. Besides, the MIC against E. coli R4 (ATCC 39543) was 0.59 µM (≈ 0.234 µg/mL); against E. coli K12 (ATCC 25404), 0.35 µM (≈ 0.139 µg/mL). Moreover, the MBC in assay [1] came out at 0.88 µM (≈ 0.349 µg/mL); against E. cloacae (ATCC 49141) it was 0.89 µM (≈ 0.353 µg/mL); in the assay on S. aureus (ATCC 23235), 0.78 µM (≈ 0.309 µg/mL); with E. coli R3 (ATCC 11775), 1.38 µM (≈ 0.547 µg/mL); in the assay on E. coli R2 (ATCC 39544), 1.31 µM (≈ 0.519 µg/mL); in [2] it was 0.91 µM (≈ 0.361 µg/mL). Further, the MBC with E. coli R4 (ATCC 39543) amounted to 1.53 µM (≈ 0.607 µg/mL); against E. coli K12 (ATCC 25404), 0.85 µM (≈ 0.337 µg/mL).
